Reference: paper PMC6242839 (Nature Communications, 2018)
In brackets after ≈: the same amount, converted by molar mass. Read-outs that look alike come from different tables or passages of the source.

Key:
[1] = tested on: Bacillus cereus ATCC 14579; conditions: cited from earlier work
[2] = tested on: B. anthracis Sterne strain; experiment: microbe, parasite or virus in culture; type: cell-based; conditions: Bacillus anthracis; 16 h at 37 °C; read-out: MIC B. anthracis Sterne
[3] = tested on: B. anthracis pathogenic strain (human isolate); experiment: microbe, parasite or virus in culture; type: cell-based; conditions: Bacillus anthracis; 16 h at 37 °C; read-out: MIC B. anthracis Pathogenic
[4] = tested on: B. anthracis ovine strain (animal isolate); experiment: microbe, parasite or virus in culture; type: cell-based; conditions: Bacillus anthracis; 16 h at 37 °C; read-out: MIC B. anthracis Ovine
[5] = tested on: E. faecalis (ATCC 29212); experiment: microbe, parasite or virus in culture; type: cell-based; conditions: Enterococcus faecalis, ATCC29212; 16 h at 37 °C; read-out: MIC E. faecalis
[6] = tested on: B. cereus (ATCC 10876); experiment: microbe, parasite or virus in culture; type: cell-based; conditions: Bacillus cereus, ATCC10876; 16 h at 37 °C; read-out: MIC B. cereus
[7] = tested on: B. cereus ATCC 14579 strains resistant to known antibiotics; experiment: microbe, parasite or virus in culture; type: cell-based, Bacillus cereus
[8] = in vitro; conditions: human
[9] = tested on: B. cereus ATCC 14579; experiment: microbe, parasite or virus in culture; type: cell-based, Bacillus cereus; conditions: Bacillus cereus, ATCC14579
[10] = POPE LUVs, compound 50 µM
[11] = POPC LUVs, compound 50 µM

Structure (SMILES)	MIC [1] [µg/mL]	MIC [2] [µM]	MIC [3] [µM]	MIC [4] [µM]	MIC [5] [µM]	MIC [6] [µM]	MIC of the antibiotic [7] [µg/mL]	IC50 at 24 h [8] [µM]	IC50 at 48 h [8] [µM]	MBC [9] [µg/mL]	MIC [9] [µg/mL]	time of leakage, τL [10]	leakage of encapsulated carboxyfluorescein ([10]; course of the experiment (14 h))	time of leakage, τL [11] [min]
CC1(C)S[C@@H]2[C@H](NC(=O)[C@H](N)c3ccccc3)C(=O)N2[C@H]1C(=O)O [Ampicillin]	0.25 (≈ 0.715 µM)	–	–	–	–	–	–	–	–	–	–	–	–	–
O=C(N[C@H](CO)[C@H](O)c1ccc([N+](=O)[O-])cc1)C(Cl)Cl [Chloramphenicol, reference compound]	2.5 (≈ 7.74 µM)	25 (≈ 8.08 µg/mL)	25 (≈ 8.08 µg/mL)	25 (≈ 8.08 µg/mL)	19 (≈ 6.14 µg/mL)	19 (≈ 6.14 µg/mL)	–	–	–	–	–	–	–	–
O=C(O)c1cn(C2CC2)c2cc(N3CCNCC3)c(F)cc2c1=O [Ciprofloxacin]	0.32 (≈ 0.966 µM)	–	–	–	–	–	50	–	–	–	–	–	–	–
CCCCCCCCCCCCS[C@H]1C[C@H](O)[C@@H](O)[C@H](C)O1 [Compound 2]	–	24 (≈ 7.98 µg/mL)	48 (≈ 16 µg/mL)	48 (≈ 16 µg/mL)	> 48	48 (≈ 16 µg/mL)	–	> 50	> 50	–	–	–	–	–
CCCCCCCCCCCC[C@H]1C[C@H](O)[C@@H](O)[C@H](C)O1 [Compound 3]	–	27 (≈ 8.11 µg/mL)	54 (≈ 16.2 µg/mL)	54 (≈ 16.2 µg/mL)	> 54	27 (≈ 8.11 µg/mL)	–	> 100	100	–	–	–	–	–
CCCCCCCCCCCCO[C@H]1C[C@H](O)[C@H](O)[C@H](C)O1 [Compound 4]	–	25 (≈ 7.91 µg/mL)	25 (≈ 7.91 µg/mL)	25 (≈ 7.91 µg/mL)	> 50	25 (≈ 7.91 µg/mL)	–	100	50	–	–	–	–	–
CCCCCCCCCCCCO[C@@H]1C[C@H](O)[C@@H](O)[C@H](C)O1 [Compound 5]	–	202 (≈ 63.9 µg/mL)	101 (≈ 32 µg/mL)	101 (≈ 32 µg/mL)	101 (≈ 32 µg/mL)	202 (≈ 63.9 µg/mL)	–	–	–	–	–	–	–	–
CCCCCCCCCCCCO[C@@H]1O[C@@H](C)[C@H](O)[C@@H](O)[C@H]1O [Compound 6]	–	24 (≈ 7.98 µg/mL)	24 (≈ 7.98 µg/mL)	48 (≈ 16 µg/mL)	48 (≈ 16 µg/mL)	–	–	–	–	32 (≈ 96.2 µM)	32 (≈ 96.2 µM)	–	–	–
CCCCCCCCCCCCO[C@H]1C[C@H](O)[C@@H](O)CO1 [Compound 7]	–	26 (≈ 7.86 µg/mL)	52 (≈ 15.7 µg/mL)	52 (≈ 15.7 µg/mL)	52 (≈ 15.7 µg/mL)	–	–	> 100	100	16 (≈ 52.9 µM)	16 (≈ 52.9 µM)	–	–	–
CCCCCCCCCCCCO[C@@H]1C[C@H](O)[C@@H](O)CO1 [Compound 8]	–	26 (≈ 7.86 µg/mL)	26 (≈ 7.86 µg/mL)	52 (≈ 15.7 µg/mL)	52 (≈ 15.7 µg/mL)	–	–	–	–	–	–	–	–	–
CCCCCCCCCCCCO[C@@H]1C[C@@H](O)[C@H](O)[C@@H](C)O1 [Compound 9]	–	50 (≈ 15.8 µg/mL)	50 (≈ 15.8 µg/mL)	50 (≈ 15.8 µg/mL)	50 (≈ 15.8 µg/mL)	25 (≈ 7.91 µg/mL)	–	100	50	–	–	–	–	–
CCCCCCCCCCCC[C@@H]1C[C@@H](O)[C@H](O)[C@@H](C)O1 [Compound 10, 1-(2,6-Dideoxy-α-D-arabino-hexopyranosyl)dodecane]	–	27 (≈ 8.11 µg/mL)	27 (≈ 8.11 µg/mL)	27 (≈ 8.11 µg/mL)	> 54	27 (≈ 8.11 µg/mL)	–	> 100	> 100	32 (≈ 106 µM)	32 (≈ 106 µM)	–	–	–
CCCCCCCCCCCCO[C@H]1O[C@H](C)C[C@H](O)[C@H]1O [Compound 11, dodecyl 4,6-dideoxy-α-D-xylo-hexopyranoside]	–	12.6 (≈ 3.99 µg/mL)	12.6 (≈ 3.99 µg/mL)	12.6 (≈ 3.99 µg/mL)	12.6 (≈ 3.99 µg/mL)	12.6 (≈ 3.99 µg/mL)	–	–	50	–	–	–	–	–
CCCCCCCCCCCCO[C@@H]1O[C@H](C)C[C@H](O)[C@H]1O [Compound 12]	–	> 405	> 405	> 405	> 405	> 405	–	–	50	–	–	–	–	–
CCCCCCCCCCCCO[C@@H]1C[C@@H](O)[C@H](O)[C@@H](CO)O1 [Compound 13]	–	386 (≈ 128 µg/mL)	12 (≈ 3.99 µg/mL)	12 (≈ 3.99 µg/mL)	12 (≈ 3.99 µg/mL)	386 (≈ 128 µg/mL)	–	100	> 50	128 (≈ 385 µM)	128 (≈ 385 µM)	about 326 min	~ 10%	~256
CCCCCCCCCCCC[C@@H]1C[C@@H](O)[C@H](O)[C@@H](CO)O1 [Compound 14]	–	104 (≈ 32.9 µg/mL)	51 (≈ 16.1 µg/mL)	51 (≈ 16.1 µg/mL)	51 (≈ 16.1 µg/mL)	51 (≈ 16.1 µg/mL)	–	–	–	–	–	–	–	–
CCCCCCCCCCCCO[C@H]1O[C@H](CO)C[C@H](O)[C@H]1O [Compound 15]	–	51 (≈ 17 µg/mL)	51 (≈ 17 µg/mL)	51 (≈ 17 µg/mL)	51 (≈ 17 µg/mL)	51 (≈ 17 µg/mL)	–	–	–	–	–	–	–	–
